Source: patent US20250089717A1, “FUNGICIDAL HALOMETHYL KETONES, HYDRATES AND ENOL ETHERS AND THEIR MIXTURES” (FMC CORPORATION, priority 2023, published 2025)

What follows are compounds tested on Phakopsora pachyrhizi (assay: Test A: preventive spray on soybean seedlings, Asian soybean rust, visual disease rating). Conditions: rate 10 ppm.
Type: in vivo
Text: General protocol for preparing test suspensions for Test A: the test compounds were first dissolved in acetone in an amount equal to 3% of the final volume and then suspended at the desired concentration (in ppm) in acetone and purified water (50/50 mix by volume) containing 250 ppm of the surfactant PEG400 (polyhydric alcohol esters). The resulting test suspensions were then used in Test A.
The test solution was sprayed to the point of run-off on soybean seedlings. The following day the seedlings were inoculated with a spore suspension of Phakopsora pachyrhizi (the causal agent of Asian soybean rust) and incubated in a saturated atmosphere at 22° C. for 24 h and then moved to a growth chamber at 22° C. for 8 days, after which time visual disease ratings were made.
A rating of 100 indicates 100% disease control and a rating of 0 indicates no disease control (relative to the controls).

| SMILES | Test A rating (100 = 100% disease control, 0 = no disease control relative to the controls) [%] |
| --- | --- |
| CCO/C(=C\Oc1ccc(Cn2cc(C(=O)NOCC3CC3)cn2)c(F)c1)C(F)(F)F [Compound 82] | 100 |
| C=CCONC(=O)c1cn(Cc2ccc(O/C=C(\OCC)C(F)(F)F)cc2)nn1 [Compound 83] | 99 |
| C=C=CC(=O)NCc1cnn(Cc2ccc(OCC3(C(F)(F)F)OCCO3)cc2)c1 [Compound 84] | 99 |
| CCOC(=O)OCc1cnn(Cc2ccc(OCC3(C(F)(F)F)OCCO3)cc2)c1 [Compound 85] | 86 |
| C#CCONC(=O)c1cccc(Cc2ccc(O/C=C(\OCC)C(F)(F)F)cc2)n1 [Compound 125, 2-[[4-1[[(1Z)-2-ethoxy-3,3,3-trifluoro-1-propen-1-yl]oxy]phenyl]methyl]-N-(2-propyn-1-yloxy)-6-pyridinecarboxamide] | 100 |
| CCO/C(=C\Oc1ccc(Cc2cccc(C(=O)NOCC(F)(F)F)n2)cc1)C(F)(F)F [Compound 127, 2-[[4-1[[(1Z)-2-ethoxy-3,3,3-trifluoro-1-propen-1-yl]oxy]phenyl]methyl]-N-(2,2,2-trifluoroethoxy)-6-pyridinecarboxamide] | 99 |
| C#CCONC(=O)c1cc(Cc2ccc(O/C=C(\OCC)C(F)(F)F)cc2)ccn1 [Compound 131, 4-[[4-1[[(1Z)-2-ethoxy-3,3,3-trifluoro-1-propen-1-yl]oxy]phenyl]methyl]-N-(2-propyn-1-yloxy)-2-pyridinecarboxamide] | 100 |
| CCO/C(=C\Oc1ccc(Cc2ccnc(C(=O)NOCC3CC3)c2)cc1)C(F)(F)F [Compound 132, 4-[[4-1[[(1Z)-2-ethoxy-3,3,3-trifluoro-1-propen-1-yl]oxy]phenyl]methyl]-N-(cyclopropylmethoxy)-2-pyridinecarboxamide] | 100 |
| CCO/C(=C\Oc1ccc(Cc2ccnc(C(=O)NOCC(F)(F)F)c2)cc1)C(F)(F)F [Compound 133, 4-[[4-1[[(1Z)-2-ethoxy-3,3,3-trifluoro-1-propen-1-yl]oxy]phenyl]methyl]-N-(2,2,2-trifluoroethoxy)-2-pyridinecarboxamide] | 100 |
| CCO/C(=C\Oc1ccc(Cn2cc(CC(=O)OCC3CC3)cn2)cc1)C(F)(F)F [compound 13] | 96 |
| C=CCOC(=O)Cc1cnn(Cc2ccc(O/C=C(\OCC)C(F)(F)F)cc2)c1 [compound 14] | 96 |
| CCO/C(=C\Oc1ccc(Cn2cc(COC(=O)C(Cl)Cl)cn2)cc1)C(F)(F)F [compound 16] | 100 |
| CCO/C(=C\Oc1ccc(Cn2cc(COC(=O)C(F)(F)Cl)cn2)cc1)C(F)(F)F [compound 19] | 100 |
| CCO/C(=C\Oc1ccc(Cn2cc(CON(C(C)=O)C(C)=O)cn2)cc1)C(F)(F)F [compound 20] | 79 |
| CCO/C(=C\Oc1ccc(Cn2cc(COC(=O)CC#N)cn2)cc1)C(F)(F)F [compound 24] | 100 |

Same assay, conditions: rate 10 ppm, read-out: Test A rating (100 = 100% disease control, 0 = no disease control relative to the controls)

| SMILES | pest or weed control at 10 ppm [%] |
| --- | --- |
| C=CCON(C)C(=O)c1cccc(Cc2ccc(O/C=C(\OCC)C(F)(F)F)cc2)n1 [Compound 108, 2-[[4-[[(1Z)-2-ethoxy-3,3,3-trifluoro-1-propen-1-yl]oxy]phenyl]methyl]-N-methyl-N-(2-propen-1-yloxy)-6-pyridinecarboxamide] | 100 |
| C=CCONC(=O)c1cccc(Cc2ccc(O/C=C(\OCC)C(F)(F)F)cc2)n1 [Compound 109, 2-[[4-[[(1Z)-2-ethoxy-3,3,3-trifluoro-1-propen-1-yl]oxy]phenyl]methyl]-N-(2-propen-1-yloxy)-6-pyridinecarboxamide] | 100 |
| C=CCON(CC)C(=O)c1cc(Cc2ccc(O/C=C(\OCC)C(F)(F)F)cc2)ccn1 [Compound 119, 4-[[4-[[(1Z)-2-ethoxy-3,3,3-trifluoro-1-propen-1-yl]oxy]phenyl]methyl]-N-ethyl-N-(2-propen-1-yloxy)-2-pyridinecarboxamide] | 100 |
| CCO/C(=C\Oc1ccc(Cc2cccc(C(=O)N(C)OCC(F)(F)F)n2)cc1)C(F)(F)F [Compound 120, 2-[[4-[[(1Z)-2-ethoxy-3,3,3-trifluoro-1-propen-1-yl]oxy]phenyl]methyl]-N-(2,2,2-trifluoroethoxy)-N-methyl-6-pyridinecarboxamide] | 100 |
| C#CCON(C)C(=O)c1cccc(Cc2ccc(O/C=C(\OCC)C(F)(F)F)cc2)n1 [Compound 121, 2-[[4-[[(1Z)-2-ethoxy-3,3,3-trifluoro-1-propen-1-yl]oxy]phenyl]methyl]-N-methyl-N-(2-propyn-1-yloxy)-6-pyridinecarboxamide] | 100 |
| CCO/C(=C\Oc1ccc(Cc2cccc(C(=O)N(C)OCC3CC3)n2)cc1)C(F)(F)F [Compound 123, 2-[[4-[[(1Z)-2-ethoxy-3,3,3-trifluoro-1-propen-1-yl]oxy]phenyl]methyl]-N-(cyclopropylmethoxy)-N-methyl-6-pyridinecarboxamide] | 100 |
| CCO/C(=C\Oc1ccc(Cc2cccc(C(=O)NOCC3CC3)n2)cc1)C(F)(F)F [Compound 124, 2-[[4-[[(1Z)-2-ethoxy-3,3,3-trifluoro-1-propen-1-yl]oxy]phenyl]methyl]-N-(cyclopropylmethoxy)-6-pyridinecarboxamide] | 100 |

Same assay, conditions: rate 50 ppm

| SMILES | Test A rating (100 = 100% disease control, 0 = no disease control relative to the controls) [%] |
| --- | --- |
| COCC(=O)OCc1cnn(Cc2ccc(OCC3(C(F)(F)F)OCCO3)cc2)c1 [Compound 86] | 100 |
| COCCC(=O)OCc1cnn(Cc2ccc(OCC3(C(F)(F)F)OCCO3)cc2)c1 [Compound 87] | 100 |
| O=C(CC1CC1)OCc1cnn(Cc2ccc(OCC3(C(F)(F)F)OCCO3)cc2)c1 [Compound 88] | 100 |
| C=CCC(=O)OCc1cnn(Cc2ccc(OCC3(C(F)(F)F)OCCO3)cc2)c1 [Compound 89] | 100 |
| CC(=O)OCc1cnn(Cc2ccc(OCC3(C(F)(F)F)OCCO3)cc2)c1 [Compound 90] | 100 |
| CCOC(=O)C(=O)OCc1cnn(Cc2ccc(OCC3(C(F)(F)F)OCCO3)cc2)c1 [Compound 91] | 100 |
| CC(C)CC(=O)OCc1cnn(Cc2ccc(OCC3(C(F)(F)F)OCCO3)cc2)c1 [Compound 92] | 100 |
| O=C(CC(F)(F)F)OCc1cnn(Cc2ccc(OCC3(C(F)(F)F)OCCO3)cc2)c1 [Compound 93] | 100 |
| C#CCOCc1cnn(Cc2ccc(OCC3(C(F)(F)F)OCCO3)cc2)c1 [Compound 94] | 100 |
| CCO/C(=C\Oc1ccc(Cn2cc(COC(=O)N(C)C)cn2)cc1)C(F)(F)F [compound 8] | 60 |
| CCO/C(=C\Oc1ccc(Cn2cc(COC(=O)NC)cn2)cc1)C(F)(F)F [compound 15] | 100 |
